Legend:
[1] = Ratio of inhibition at CCK-A compared to CCK-B receptors.
[2] = target: T1, Gastrin/cholecystokinin type B receptor (Mus musculus, UniProt P56481); test: In vitro inhibition of [125I]- Bolton Hunter CCK-8 binding to Cholecystokinin type B receptor in the mouse cerebral cortex.; assay type: tissue-based
T1 sequence (P56481 whole entry): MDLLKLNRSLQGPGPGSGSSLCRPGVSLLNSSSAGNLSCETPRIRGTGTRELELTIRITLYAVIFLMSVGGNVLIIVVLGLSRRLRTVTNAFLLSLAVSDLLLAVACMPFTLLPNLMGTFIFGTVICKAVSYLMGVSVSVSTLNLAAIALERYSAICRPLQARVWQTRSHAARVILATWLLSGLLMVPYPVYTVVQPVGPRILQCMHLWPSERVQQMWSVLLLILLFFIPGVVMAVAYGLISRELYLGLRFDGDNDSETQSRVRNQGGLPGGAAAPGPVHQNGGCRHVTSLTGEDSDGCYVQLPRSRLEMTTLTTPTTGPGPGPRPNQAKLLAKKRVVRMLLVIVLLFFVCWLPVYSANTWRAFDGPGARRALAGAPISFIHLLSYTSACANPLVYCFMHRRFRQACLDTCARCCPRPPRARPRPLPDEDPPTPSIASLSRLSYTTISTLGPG

[3] = target: T2, Cholecystokinin receptor type A (Rattus norvegicus, UniProt P30551); test: In vitro inhibition of [125I]- Bolton Hunter CCK-8 to Cholecystokinin type A receptor in the rat pancreas.
T2 sequence (P30551 whole entry): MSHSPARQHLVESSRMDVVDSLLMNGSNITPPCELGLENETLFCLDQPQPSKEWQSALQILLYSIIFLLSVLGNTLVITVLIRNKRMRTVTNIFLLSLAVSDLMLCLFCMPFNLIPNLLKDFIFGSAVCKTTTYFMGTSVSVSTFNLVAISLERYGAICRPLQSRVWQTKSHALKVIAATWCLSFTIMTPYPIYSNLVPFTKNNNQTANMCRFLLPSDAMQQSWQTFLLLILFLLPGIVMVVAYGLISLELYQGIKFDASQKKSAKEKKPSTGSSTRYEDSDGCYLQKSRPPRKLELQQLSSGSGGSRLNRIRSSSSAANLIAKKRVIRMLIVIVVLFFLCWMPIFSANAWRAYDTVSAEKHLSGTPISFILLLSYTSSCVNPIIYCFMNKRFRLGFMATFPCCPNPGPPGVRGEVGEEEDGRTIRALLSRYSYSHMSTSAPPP

| Compound | Ratio [1] | IC50 [2] | IC50 [3] |
| --- | --- | --- | --- |
| COC(=O)CCCCCCN(CCc1ccccc1)C(=O)[C@](C)(Cc1c[nH]c2ccccc12)NC(=O)OC1[C@H]2C[C@@H]3C[C@@H](C[C@H]1C3)C2 (some centres undefined) | 35.7 | 177 nM | 6320 nM |
| COC(=O)CN(CCc1ccccn1)C(=O)C(C)(Cc1c[nH]c2ccccc12)NC(=O)OC1[C@H]2C[C@@H]3C[C@@H](C[C@H]1C3)C2 (single isomer, unassigned) | 27.7 | 90.9 nM | 2520 nM |
| C[C@@](Cc1c[nH]c2ccccc12)(NC(=O)OC1[C@H]2C[C@@H]3C[C@@H](C[C@H]1C3)C2)C(=O)NCCc1ccccn1 (some centres undefined) | 119 | 15.5 nM | 1850 nM |
| COC(=O)CN(CCc1ccccc1)C(=O)[C@](C)(Cc1c[nH]c2ccccc12)NC(=O)OC1[C@H]2C[C@@H]3C[C@@H](C[C@H]1C3)C2 (some centres undefined) | 4.4 | 532 nM | 2330 nM |
| C[C@@](Cc1c[nH]c2ccccc12)(NC(=O)OC1[C@H]2C[C@@H]3C[C@@H](C[C@H]1C3)C2)C(=O)N(CCc1ccccc1)CC(=O)O (some centres undefined) | – | – | > 1000 nM |
| CC(Cc1c[nH]c2ccccc12)(NC(=O)OC1[C@H]2C[C@@H]3C[C@@H](C[C@H]1C3)C2)C(=O)N(CCc1ccccc1)CC(=O)O (single isomer, unassigned) | – | – | 1080 nM |
| C[C@@](Cc1c[nH]c2ccccc12)(NC(=O)OC1[C@H]2C[C@@H]3C[C@@H](C[C@H]1C3)C2)C(=O)N(CCCCCCC(=O)O)CCc1ccccc1 (some centres undefined) | > 2.9 | 348 nM | > 1000 nM |
| COC(=O)CCN(CCc1ccccc1)C(=O)C(C)(Cc1c[nH]c2ccccc12)NC(=O)OC1[C@H]2C[C@@H]3C[C@@H](C[C@H]1C3)C2 (single isomer, unassigned) | 17.5 | 113 nM | 1980 nM |
| C[C@@](Cc1c[nH]c2ccccc12)(NC(=O)OC1[C@H]2C[C@@H]3C[C@@H](C[C@H]1C3)C2)C(=O)N(CCC(=O)O)CCc1ccccc1 (some centres undefined) | – | – | 672 nM |

The next molecules have a lower IC50 [3] than those just listed; values first:

| Ratio [1] | IC50 [2] | IC50 [3] | Compound |
| --- | --- | --- | --- |
| 7 | 80.2 nM | 564 nM | CC(Cc1c[nH]c2ccccc12)(NC(=O)OC1[C@H]2C[C@@H]3C[C@@H](C[C@H]1C3)C2)C(=O)N(CCCC(=O)O)CCc1ccccc1 (single isomer, unassigned) |
| – | – | 527 nM | CC(Cc1c[nH]c2ccccc12)(NC(=O)OC1[C@H]2C[C@@H]3C[C@@H](C[C@H]1C3)C2)C(=O)N(CCC(=O)O)CCc1ccccc1 (single isomer, unassigned) |
| 146 | 2.31 nM | 337 nM | C[C@@](Cc1c[nH]c2ccccc12)(NC(=O)OC1[C@H]2C[C@@H]3C[C@@H](C[C@H]1C3)C2)C(=O)N(CCc1ccccn1)CC(=O)O (some centres undefined) |
| – | – | 25.5 nM | C[C@@](Cc1c[nH]c2ccccc12)(NC(=O)OC1C2CC3CC(C2)CC1C3)C(=O)N[C@@H](CC(=O)O)Cc1ccccc1 (some centres undefined) |

Source: ChEMBL document CHEMBL1127168, “Synthesis and sar study of novel CCK-B antagonists” (Bioorg Med Chem Lett, 1993)
